Measured values reported in patent publication US20240369536A1, “A CELL BASED TEST TO MONITOR DMARD DRUG RESPONSE” (UNIVERSITY OF ULSTER, priority 2021, published 2024).
Entries after “also recorded” stand apart in the source; their conditions may differ.

Legend:
[1] = test system: CD4+CD25+CD127− Treg cells; test: FACS analysis of CD4, NFκB and FoxP3 in expanded Tregs stimulated with PMA with or without Sia; format: cell-based, human
Description: PBMCs were labelled with antibodies (Becton Dickinson®, UK) against CD3, CD4, CD25, CD45, CD45RA, CD127 and CD43 antigens according to the manufacturer's instructions to assess relative Treg numbers. When FoxP3 and nuclear factor kappa-light-chain-enhancer of activated B cells (NFκB) antibody labelling was required, cells were pretreated with a lymphocyte membrane permeabilising solution (BD FACS™ Permeabilizing solution 2; Becton Dickinson®, UK). For monocyte analysis, cells were firstly enriched using a pan monocyte isolation kit and benchtop magnetic cell sorting device (autoMACS Pro separator; Miltenyi Biotec®). Enriched monocytes were labelled with antibodies (Becton Dickinson®, UK) against CD14, CD16 and CD169 antigens. Cell populations were analysed using fluorescence-activated cell sorting (FACS) in a flow cytometer with sorting capability (FACSAria™ III; Becton Dickinson, UK) with appropriate flow cytometer software (BD FACSDiva™ software version 8.0.1; Becton Dickinson, UK). Negative controls including unlabelled cells and isotype matched control antibodies were used to determine gating strategies. The positivity of a specific cell surface marker in labelled samples compared to the negative control was analysed as a percentage of the parent population. The median fluorescence intensity (MFI), indicating cell surface density of a specific marker, was also noted for cell populations. Mann Whitney tests were used to assess the statistical significance of differences between sample groups and graphs depict median values with error bars representing the interquartile range.
CD4^+CD25^+CD127^− Treg cells were sorted by FACS into phosphate buffered saline (PBS) containing 20% AB serum (Sigma-Aldrich®, UK), then washed and resuspended in serum-free cell culture medium (TexsMACS™ medium; Miltenyi Biotec®, UK), supplemented with 5% AB serum (Sigma-Aldrich®, UK), 1% Penicillin-Streptomycin (Gibco®, Ireland) and human IL-2 (Miltenyi Biotec®, UK). Trypan blue (Sigma-Aldrich®, UK) was used to ensure cell viability after sorting was >90-95%. A human Treg expansion kit (Miltenyi Biotec, UK) was used to induce Treg proliferation in order to expand the population to sufficient cell numbers for experiments. Following 14 days of expansion, Tregs were stimulated with 10 ng/ml phorbol 12-myristate 13-acetate (PMA) (Sigma-Aldrich®, UK) and 500 ng/ml ionomycin (10) (Invitrogen®) for 24 hours. During the same 24-hour stimulation, Tregs were incubated with or without 10 mM sialic acid (Sia) (Sigma-Aldrich®, UK). […] Cell culture conditioned media was retained and analysed for secreted cytokine levels by enzyme-linked immunosorbent assay (ELISA), described below. […]

[2] = test system: CD4+CD25+CD127− Treg cells; test: ELISA of secreted cytokines (TNFα, IL-10, IFNγ) in conditioned media of Treg cultures; format: cell-based, human; details: PMA relative to controls
Description: CD4^+CD25^+CD127^− Treg cells were sorted by FACS into phosphate buffered saline (PBS) containing 20% AB serum (Sigma-Aldrich®, UK), then washed and resuspended in serum-free cell culture medium (TexsMACS™ medium; Miltenyi Biotec®, UK), supplemented with 5% AB serum (Sigma-Aldrich®, UK), 1% Penicillin-Streptomycin (Gibco®, Ireland) and human IL-2 (Miltenyi Biotec®, UK). Trypan blue (Sigma-Aldrich®, UK) was used to ensure cell viability after sorting was >90-95%. A human Treg expansion kit (Miltenyi Biotec, UK) was used to induce Treg proliferation in order to expand the population to sufficient cell numbers for experiments. Following 14 days of expansion, Tregs were stimulated with 10 ng/ml phorbol 12-myristate 13-acetate (PMA) (Sigma-Aldrich®, UK) and 500 ng/ml ionomycin (10) (Invitrogen®) for 24 hours. During the same 24-hour stimulation, Tregs were incubated with or without 10 mM sialic acid (Sia) (Sigma-Aldrich®, UK). At baseline, 24 hr and 48 hr time points (Day 0, Day 1 and Day 2), cells were removed from culture and labelled prior to FACS analysis of extracellular markers CD4, CD25, CD127 and CD43, and intracellular markers NFκB and FoxP3. Cell culture conditioned media was retained and analysed for secreted cytokine levels by enzyme-linked immunosorbent assay (ELISA), described below. A preliminary experiment included a Day 2 time-point, however latter experiments were concluded at the Day 1 time-point as this was sufficient to observe Sia treatment effects. […]
Following cell culture experiments, conditioned media were analysed to quantify TNFα, IL-10 and IFN-γ by ELISA using appropriate ELISA reagent kits (DuoSet® ELISA development kits; R&D Systems®, UK) according to the manufacturer's instructions. The optical density (OD) was determined using a spectrophotometer (Epoch™ microplate spectrophotometer; BioTek® Ltd, UK) with appropriate software (Gen5™; BioTek® Ltd, UK). The plate was read at a wavelength of 450 nm and wavelength correction of OD at 540 nm used. […]

| SMILES | CD4 cell-surface expression (percentage of CD4 positivity) ([1]; 10 ng/ml PMA + 500 ng/ml ionomycin, compared to CTL cells without stimulation) | percentage of cells with intracellular expression of FoxP3 ([1]; PMA stimulation, both CD43+ and CD43− Tregs, each time point, p<0.01) | percentage of cells with intracellular expression of NFκB ([1]; PMA stimulation, both CD43+ and CD43− Tregs, each time point, p<0.05) | IFNγ levels secreted into media ([2]; Day 1, p<0.01) | levels of IL-10 secreted into media ([2]; Day 1 and Day 2, p<0.05) | levels of TNFα secreted into media ([2]; Day 1 and Day 2, p<0.05) | effect on NFκB Tregs ([1]; 10 mM Sia added to PMA-stimulated Tregs, after 2 days) |
| --- | --- | --- | --- | --- | --- | --- | --- |
| CCCCCCCCCCCCCC(=O)O[C@@H]1[C@@H](C)[C@@]2(O)[C@@H](C=C(CO)C[C@]3(O)C(=O)C(C)=C[C@@H]23)[C@@H]2C(C)(C)[C@]12OC(C)=O [PMA, phorbol 12-myristate 13-acetate] | reduced; also recorded: reduction | increased | increased | significantly higher | significantly increased | significantly increased | – |
| CC(=O)N[C@H]1[C@H]([C@H](O)[C@H](O)CO)OC(O)(C(=O)O)C[C@@H]1O (stereo partly shown) [Sia, sialic acid] | – | – | – | – | – | – | no significant effect |
